Data reported in ChEMBL document CHEMBL1671617, “Correlation of antimicrobial resistance with beta-lactamases, the OmpA-like porin, and efflux pumps in clinical isolates of Acinetobacter baumannii endemic to New York City” (2008).
Values after ≈ are worked out from the molar mass of the structure shown.

What follows are molecules tested on Acinetobacter baumannii (assay: Antimicrobial activity against ISAba1 linked with the blaOXA-51-type beta-lactamase harboring Acinetobacter baumannii alpha clonal group isolate 1 expressing ampC, ompA, adeB, adeM by Etest method).
Format: functional

Row | SMILES | MIC [µg/mL]
1 | NCC[C@H](O)C(=O)N[C@@H]1C[C@H](N)[C@@H](O[C@H]2O[C@H](CN)[C@@H](O)[C@H](O)[C@H]2O)[C@H](O)[C@H]1O[C@H]1O[C@H](CO)[C@@H](O)[C@H](N)[C@H]1O [AMIKACIN] | 1.5 (≈ 2.56 µM)

The molecules below were run on Acinetobacter baumannii (assay: Antimicrobial activity against Acinetobacter baumannii alpha clonal group isolate 2 expressing ampC, ompA, adeB, adeM, aacC1, aadA1 by Etest method).
Format: functional

Row | SMILES | MIC [µg/mL]
2 | NCC[C@H](O)C(=O)N[C@@H]1C[C@H](N)[C@@H](O[C@H]2O[C@H](CN)[C@@H](O)[C@H](O)[C@H]2O)[C@H](O)[C@H]1O[C@H]1O[C@H](CO)[C@@H](O)[C@H](N)[C@H]1O [AMIKACIN] | 2 (≈ 3.42 µM)

The molecules below were run on Acinetobacter baumannii (assay: Antimicrobial activity against Acinetobacter baumannii alpha clonal group isolate 3 expressing ampC, ompA, adeB, adeM, aacC1, aadA1 by Etest method).
Format: functional

Row | SMILES | MIC [µg/mL]
3 | NCC[C@H](O)C(=O)N[C@@H]1C[C@H](N)[C@@H](O[C@H]2O[C@H](CN)[C@@H](O)[C@H](O)[C@H]2O)[C@H](O)[C@H]1O[C@H]1O[C@H](CO)[C@@H](O)[C@H](N)[C@H]1O [AMIKACIN] | 2 (≈ 3.42 µM)

These molecules were tested on Acinetobacter baumannii (assay: Antimicrobial activity against Acinetobacter baumannii alpha clonal group isolate 4 expressing ampC, ompA, adeB, adeM, aacC1, aadA1 by Etest method).
Format: functional

Row | SMILES | MIC [µg/mL]
4 | NCC[C@H](O)C(=O)N[C@@H]1C[C@H](N)[C@@H](O[C@H]2O[C@H](CN)[C@@H](O)[C@H](O)[C@H]2O)[C@H](O)[C@H]1O[C@H]1O[C@H](CO)[C@@H](O)[C@H](N)[C@H]1O [AMIKACIN] | 2 (≈ 3.42 µM)

These molecules were tested on Acinetobacter baumannii (assay: Antimicrobial activity against Acinetobacter baumannii alpha clonal group isolate 5 expressing ampC, ompA, adeB, adeM, aacC1, aadA1 by Etest method).
Format: functional

Row | SMILES | MIC [µg/mL]
5 | NCC[C@H](O)C(=O)N[C@@H]1C[C@H](N)[C@@H](O[C@H]2O[C@H](CN)[C@@H](O)[C@H](O)[C@H]2O)[C@H](O)[C@H]1O[C@H]1O[C@H](CO)[C@@H](O)[C@H](N)[C@H]1O [AMIKACIN] | 2 (≈ 3.42 µM)

The molecules below were run on Acinetobacter baumannii (assay: Antimicrobial activity against ISAba1 linked with the blaOXA-51-type beta-lactamase harboring Acinetobacter baumannii alpha clonal group isolate 6 expressing ampC, ompA, adeB, adeM, aacC1, aadA1 by Etest method).
Format: functional

Row | SMILES | MIC [µg/mL]
6 | NCC[C@H](O)C(=O)N[C@@H]1C[C@H](N)[C@@H](O[C@H]2O[C@H](CN)[C@@H](O)[C@H](O)[C@H]2O)[C@H](O)[C@H]1O[C@H]1O[C@H](CO)[C@@H](O)[C@H](N)[C@H]1O [AMIKACIN] | 1.5 (≈ 2.56 µM)

What follows are molecules tested on Acinetobacter baumannii (assay: Antimicrobial activity against ISAba1 linked with the blaOXA-51-type beta-lactamase harboring Acinetobacter baumannii alpha clonal group isolate 7 expressing ampC, ompA, adeB, adeM, blaSHV-5 by Etest method).
Format: functional

Row | SMILES | MIC [µg/mL]
7 | NCC[C@H](O)C(=O)N[C@@H]1C[C@H](N)[C@@H](O[C@H]2O[C@H](CN)[C@@H](O)[C@H](O)[C@H]2O)[C@H](O)[C@H]1O[C@H]1O[C@H](CO)[C@@H](O)[C@H](N)[C@H]1O [AMIKACIN] | 2 (≈ 3.42 µM)

These molecules were tested on Acinetobacter baumannii (assay: Antimicrobial activity against ISAba1 linked with the blaOXA-51-type beta-lactamase harboring Acinetobacter baumannii alpha clonal group isolate 8 expressing ampC, ompA, adeB, adeM, aacC1, aadA1 by Etest method).
Format: functional

Row | SMILES | MIC [µg/mL]
8 | NCC[C@H](O)C(=O)N[C@@H]1C[C@H](N)[C@@H](O[C@H]2O[C@H](CN)[C@@H](O)[C@H](O)[C@H]2O)[C@H](O)[C@H]1O[C@H]1O[C@H](CO)[C@@H](O)[C@H](N)[C@H]1O [AMIKACIN] | 4 (≈ 6.83 µM)

These molecules were tested on Acinetobacter baumannii (assay: Antimicrobial activity against ISAba1 linked with the blaOXA-51-type beta-lactamase harboring Acinetobacter baumannii beta clonal group isolate 9 expressing ampC, ompA, adeB, adeM by Etest method).
Format: functional

Row | SMILES | MIC [µg/mL]
9 | NCC[C@H](O)C(=O)N[C@@H]1C[C@H](N)[C@@H](O[C@H]2O[C@H](CN)[C@@H](O)[C@H](O)[C@H]2O)[C@H](O)[C@H]1O[C@H]1O[C@H](CO)[C@@H](O)[C@H](N)[C@H]1O [AMIKACIN] | 4 (≈ 6.83 µM)

Each molecule was assayed on Acinetobacter baumannii (assay: Antimicrobial activity against ISAba1 linked with the blaOXA-51-type beta-lactamase harboring Acinetobacter baumannii beta clonal group isolate 10 expressing ompA, adeB, adeM, aacA4, blaSHV-5 by Etest method).
Format: functional

Row | SMILES | MIC [µg/mL]
10 | NCC[C@H](O)C(=O)N[C@@H]1C[C@H](N)[C@@H](O[C@H]2O[C@H](CN)[C@@H](O)[C@H](O)[C@H]2O)[C@H](O)[C@H]1O[C@H]1O[C@H](CO)[C@@H](O)[C@H](N)[C@H]1O [AMIKACIN] | 6 (≈ 10.2 µM)

These molecules were tested on Acinetobacter baumannii (assay: Antimicrobial activity against ISAba1 linked with the blaOXA-51-type beta-lactamase harboring Acinetobacter baumannii beta clonal group isolate 11 expressing ompA, adeB, adeM, blaSHV-5 by Etest method).
Format: functional

Row | SMILES | MIC [µg/mL]
11 | NCC[C@H](O)C(=O)N[C@@H]1C[C@H](N)[C@@H](O[C@H]2O[C@H](CN)[C@@H](O)[C@H](O)[C@H]2O)[C@H](O)[C@H]1O[C@H]1O[C@H](CO)[C@@H](O)[C@H](N)[C@H]1O [AMIKACIN] | 3 (≈ 5.12 µM)

The molecules below were run on Acinetobacter baumannii (assay: Antimicrobial activity against ISAba1 linked with the blaOXA-51-type beta-lactamase harboring Acinetobacter baumannii beta clonal group isolate 12 expressing ompA, adeB, adeM, aacA4, aacC2, blaSHV-5 by Etest method).
Format: functional

Row | SMILES | MIC [µg/mL]
12 | NCC[C@H](O)C(=O)N[C@@H]1C[C@H](N)[C@@H](O[C@H]2O[C@H](CN)[C@@H](O)[C@H](O)[C@H]2O)[C@H](O)[C@H]1O[C@H]1O[C@H](CO)[C@@H](O)[C@H](N)[C@H]1O [AMIKACIN] | 24 (≈ 41 µM)

The molecules below were run on Acinetobacter baumannii (assay: Antimicrobial activity against ISAba1 linked with the blaOXA-51-type beta-lactamase harboring Acinetobacter baumannii beta clonal group isolate 13 expressing ompA, adeB, adeM, aacA4, blaSHV-5 by Etest method).
Format: functional

Row | SMILES | MIC [µg/mL]
13 | NCC[C@H](O)C(=O)N[C@@H]1C[C@H](N)[C@@H](O[C@H]2O[C@H](CN)[C@@H](O)[C@H](O)[C@H]2O)[C@H](O)[C@H]1O[C@H]1O[C@H](CO)[C@@H](O)[C@H](N)[C@H]1O [AMIKACIN] | 8 (≈ 13.7 µM)

The molecules below were run on Acinetobacter baumannii (assay: Antimicrobial activity against ISAba1 linked with the blaOXA-51-type beta-lactamase harboring Acinetobacter baumannii beta clonal group isolate 14 expressing ompA, adeB, adeM, aacA4, blaSHV-5 by Etest method).
Format: functional

Row | SMILES | MIC [µg/mL]
14 | NCC[C@H](O)C(=O)N[C@@H]1C[C@H](N)[C@@H](O[C@H]2O[C@H](CN)[C@@H](O)[C@H](O)[C@H]2O)[C@H](O)[C@H]1O[C@H]1O[C@H](CO)[C@@H](O)[C@H](N)[C@H]1O [AMIKACIN] | 8 (≈ 13.7 µM)

Each molecule was assayed on Acinetobacter baumannii (assay: Antimicrobial activity against ISAba1 linked with the blaOXA-51-type beta-lactamase harboring Acinetobacter baumannii beta clonal group isolate 15 expressing ompA, adeB, adeM, aacA4, blaSHV-5 by Etest method).
Format: functional

Row | SMILES | MIC [µg/mL]
15 | NCC[C@H](O)C(=O)N[C@@H]1C[C@H](N)[C@@H](O[C@H]2O[C@H](CN)[C@@H](O)[C@H](O)[C@H]2O)[C@H](O)[C@H]1O[C@H]1O[C@H](CO)[C@@H](O)[C@H](N)[C@H]1O [AMIKACIN] | 8 (≈ 13.7 µM)

Each molecule was assayed on Acinetobacter baumannii (assay: Antimicrobial activity against ISAba1 linked with the blaOXA-51-type beta-lactamase harboring Acinetobacter baumannii beta clonal group isolate 16 expressing ompA, adeB, adeM, aacA4, blaSHV-5 by Etest method).
Format: functional

Row | SMILES | MIC [µg/mL]
16 | NCC[C@H](O)C(=O)N[C@@H]1C[C@H](N)[C@@H](O[C@H]2O[C@H](CN)[C@@H](O)[C@H](O)[C@H]2O)[C@H](O)[C@H]1O[C@H]1O[C@H](CO)[C@@H](O)[C@H](N)[C@H]1O [AMIKACIN] | 8 (≈ 13.7 µM)

What follows are molecules tested on Acinetobacter baumannii (assay: Antimicrobial activity against ISAba1 linked with the blaOXA-51-type beta-lactamase harboring Acinetobacter baumannii beta clonal group isolate 17 expressing ompA, adeB, adeM, aacA4, blaSHV-5 by Etest method).
Format: functional

Row | SMILES | MIC [µg/mL]
17 | NCC[C@H](O)C(=O)N[C@@H]1C[C@H](N)[C@@H](O[C@H]2O[C@H](CN)[C@@H](O)[C@H](O)[C@H]2O)[C@H](O)[C@H]1O[C@H]1O[C@H](CO)[C@@H](O)[C@H](N)[C@H]1O [AMIKACIN] | 8 (≈ 13.7 µM)

Each molecule was assayed on Acinetobacter baumannii (assay: Antimicrobial activity against ISAba1 linked with the blaOXA-51-type beta-lactamase harboring Acinetobacter baumannii beta clonal group isolate 18 expressing ompA, adeB, adeM, aacA4, blaSHV-5 by Etest method).
Format: functional

Row | SMILES | MIC [µg/mL]
18 | NCC[C@H](O)C(=O)N[C@@H]1C[C@H](N)[C@@H](O[C@H]2O[C@H](CN)[C@@H](O)[C@H](O)[C@H]2O)[C@H](O)[C@H]1O[C@H]1O[C@H](CO)[C@@H](O)[C@H](N)[C@H]1O [AMIKACIN] | 24 (≈ 41 µM)

What follows are molecules tested on Acinetobacter baumannii (assay: Antimicrobial activity against ISAba1 linked with the blaOXA-51-type beta-lactamase harboring Acinetobacter baumannii zeta clonal group isolate 19 expressing ampC, ompA, adeB, adeM, aacC2 by Etest method).
Format: functional

Row | SMILES | MIC [µg/mL]
19 | NCC[C@H](O)C(=O)N[C@@H]1C[C@H](N)[C@@H](O[C@H]2O[C@H](CN)[C@@H](O)[C@H](O)[C@H]2O)[C@H](O)[C@H]1O[C@H]1O[C@H](CO)[C@@H](O)[C@H](N)[C@H]1O [AMIKACIN] | 3 (≈ 5.12 µM)

The molecules below were run on Acinetobacter baumannii (assay: Antimicrobial activity against ISAba1 linked with the blaOXA-51-type beta-lactamase harboring Acinetobacter baumannii zeta clonal group isolate 20 expressing ampC, ompA, adeB, adeM, aacC2 by Etest method).
Format: functional

Row | SMILES | MIC [µg/mL]
20 | NCC[C@H](O)C(=O)N[C@@H]1C[C@H](N)[C@@H](O[C@H]2O[C@H](CN)[C@@H](O)[C@H](O)[C@H]2O)[C@H](O)[C@H]1O[C@H]1O[C@H](CO)[C@@H](O)[C@H](N)[C@H]1O [AMIKACIN] | 3 (≈ 5.12 µM)
